In brackets after ≈: the same amount, converted by molar mass.
Assays:
Format in all cases: functional
[1] = system: Staphylococcus epidermidis; assay: Antibacterial activity against Staphylococcus epidermidis ATCC 51625 assessed as bacterial growth inhibition measured after 20 hrs by broth dilution method
Staphylococcus aureus [2] = assay: Antibacterial activity against methicillin-resistant Staphylococcus aureus clinical isolate 202405157 assessed as bacterial growth inhibition measured after 20 hrs by broth dilution method
[3] = system: Staphylococcus epidermidis; assay: Antibacterial activity against methicillin-resistant Staphylococcus epidermidis clinical isolate 202409139 assessed as bacterial growth inhibition measured after 20 hrs by broth dilution method
Streptococcus pneumoniae [4] = assay: Ratio of MBC to MIC against penicillin-intermediate Streptococcus pneumoniae ATCC 49619
[5] = system: Staphylococcus epidermidis; assay: Antibacterial activity against methicillin-resistant Staphylococcus epidermidis clinical isolate 202409454 assessed as bacterial growth inhibition measured after 20 hrs by broth dilution method
[6] = system: Staphylococcus epidermidis; assay: Ratio of MBC to MIC against methicillin-resistant Staphylococcus epidermidis clinical isolate 202409454
Enterococcus faecium [7] = assay: Ratio of MBC to MIC against vancomycin-resistant Enterococcus faecium ATCC 51559
Enterococcus faecium [8] = assay: Ratio of MBC to MIC against vancomycin-resistant Enterococcus faecium ATCC 700221
Streptococcus pneumoniae [9] = assay: Antibacterial activity against penicillin-resistant Streptococcus pneumoniae ATCC 51916 assessed as bacterial growth inhibition measured after 20 hrs by broth dilution method
Enterococcus faecium [10] = assay: Ratio of MBC to MIC against vancomycin-resistant Enterococcus faecium clinical isolate 202308456
Enterococcus faecium [11] = assay: Antibacterial activity against vancomycin-resistant Enterococcus faecium clinical isolate 202308456 assessed as bacterial growth inhibition measured after 20 hrs by broth dilution method
Streptococcus pneumoniae [12] = assay: Antibacterial activity against penicillin-intermediate Streptococcus pneumoniae ATCC 49619 assessed as bacterial growth inhibition measured after 20 hrs by broth dilution method
Staphylococcus aureus [13] = assay: Antibacterial activity against methicillin-resistant Staphylococcus aureus ATCC 43300 assessed as bacterial growth inhibition measured after 20 hrs by broth dilution method
Staphylococcus aureus [14] = assay: Ratio of MBC to MIC against methicillin-resistant Staphylococcus aureus clinical isolate 202313160
[15] = system: Staphylococcus epidermidis; assay: Ratio of MBC to MIC against Staphylococcus epidermidis ATCC 51625
Staphylococcus aureus [16] = assay: Antibacterial activity against methicillin-resistant Staphylococcus aureus ATCC 33591 assessed as bacterial growth inhibition measured after 20 hrs by broth dilution method
Staphylococcus aureus [17] = assay: Antibacterial activity against methicillin-resistant Staphylococcus aureus clinical isolate 202313160 assessed as bacterial growth inhibition measured after 20 hrs by broth dilution method
Staphylococcus aureus [18] = assay: Antibacterial activity against methicillin-resistant Staphylococcus aureus clinical isolate 202311772 assessed as bacterial growth inhibition measured after 20 hrs by broth dilution method
Enterococcus faecium [19] = assay: Antibacterial activity against vancomycin-resistant Enterococcus faecium ATCC 700221 assessed as bacterial growth inhibition measured after 20 hrs by broth dilution method
Enterococcus faecium [20] = assay: Antibacterial activity against vancomycin-resistant Enterococcus faecium ATCC 51559 assessed as bacterial growth inhibition measured after 20 hrs by broth dilution method
Staphylococcus aureus [21] = assay: Ratio of MBC to MIC against Staphylococcus aureus ATCC 43300
Staphylococcus aureus [22] = assay: Ratio of MBC to MIC against methicillin-resistant Staphylococcus aureus clinical isolate 202311772
[23] = system: Staphylococcus epidermidis; assay: Ratio of MBC to MIC against methicillin-resistant Staphylococcus epidermidis clinical isolate 202409139
Staphylococcus aureus [24] = assay: Ratio of MBC to MIC against methicillin-resistant Staphylococcus aureus clinical isolate 202405157
Staphylococcus aureus [25] = assay: Ratio of MBC to MIC against methicillin-resistant Staphylococcus aureus ATCC 33591
Streptococcus pneumoniae [26] = assay: Ratio of MBC to MIC against penicillin-resistant Streptococcus pneumoniae ATCC 51916

Row | Structure (SMILES) | MIC [1] [µg/mL] | MIC (Staphylococcus aureus [2]) [µg/mL] | MIC [3] [µg/mL] | Ratio (Streptococcus pneumoniae [4]) | MIC [5] [µg/mL] | Ratio [6] | Ratio (Enterococcus faecium [7]) | Ratio (Enterococcus faecium [8]) | MIC (Streptococcus pneumoniae [9]) [µg/mL] | Ratio (Enterococcus faecium [10]) | MIC (Enterococcus faecium [11]) [µg/mL] | MIC (Streptococcus pneumoniae [12]) [µg/mL] | MIC (Staphylococcus aureus [13]) [µg/mL] | Ratio [15] | MIC (Staphylococcus aureus [16]) [µg/mL] | MIC (Staphylococcus aureus [17]) [µg/mL] | MIC (Staphylococcus aureus [18]) [µg/mL] | MIC (Enterococcus faecium [19]) [µg/mL] | MIC (Enterococcus faecium [20]) [µg/mL] | Ratio (Staphylococcus aureus [21]) | also measured
1 | C=C[C@]1(C)C[C@@H](OC(=O)CSc2cc(=O)oc3ccc([N+](=O)[O-])cc23)[C@]2(C)[C@H](C)CC[C@]3(CCC(=O)[C@H]32)[C@@H](C)[C@@H]1O | 0.031 (≈ 0.0531 µM) | 0.063 (≈ 0.108 µM) | 0.063 (≈ 0.108 µM) | >4 | 0.125 (≈ 0.214 µM) | 2 | 2 | 2 | 0.25 (≈ 0.428 µM) | 1 | 0.125 (≈ 0.214 µM) | 0.125 (≈ 0.214 µM) | 0.063 (≈ 0.108 µM) | >4 | 0.031 (≈ 0.0531 µM) | 0.063 (≈ 0.108 µM) | 0.031 (≈ 0.0531 µM) | 0.031 (≈ 0.0531 µM) | 0.063 (≈ 0.108 µM) | >4 | Ratio (Staphylococcus aureus [14]): 4
2 | C=C[C@]1(C)C[C@@H](OC(=O)CSc2cc(=O)oc3ccc(F)cc23)[C@]2(C)[C@H](C)CC[C@]3(CCC(=O)[C@H]32)[C@@H](C)[C@@H]1O | 0.031 (≈ 0.0557 µM) | 0.063 (≈ 0.113 µM) | 0.063 (≈ 0.113 µM) | >4 | 0.125 (≈ 0.225 µM) | >4 | 2 | 4 | 0.125 (≈ 0.225 µM) | >4 | 0.031 (≈ 0.0557 µM) | 0.063 (≈ 0.113 µM) | 0.063 (≈ 0.113 µM) | 4 | 0.031 (≈ 0.0557 µM) | 0.063 (≈ 0.113 µM) | 0.031 (≈ 0.0557 µM) | 0.031 (≈ 0.0557 µM) | 0.063 (≈ 0.113 µM) | 4 | Ratio (Staphylococcus aureus [22]): >4; Ratio [23]: 2; Ratio (Staphylococcus aureus [24]): >4; Ratio (Staphylococcus aureus [25]): >4
3 | C=C[C@]1(C)C[C@@H](OC(=O)CSc2cc(=O)oc3cc(Cl)ccc23)[C@]2(C)[C@H](C)CC[C@]3(CCC(=O)[C@H]32)[C@@H](C)[C@@H]1O | 0.031 (≈ 0.0541 µM) | 0.25 (≈ 0.436 µM) | 0.125 (≈ 0.218 µM) | 4 | 0.125 (≈ 0.218 µM) | 2 | 2 | 2 | 0.125 (≈ 0.218 µM) | >4 | 0.063 (≈ 0.11 µM) | 0.063 (≈ 0.11 µM) | 0.063 (≈ 0.11 µM) | >4 | 0.031 (≈ 0.0541 µM) | 0.125 (≈ 0.218 µM) | 0.031 (≈ 0.0541 µM) | 0.031 (≈ 0.0541 µM) | 0.063 (≈ 0.11 µM) | 4 | Ratio (Staphylococcus aureus [22]): >4; Ratio (Staphylococcus aureus [24]): >4; Ratio (Staphylococcus aureus [14]): >4; Ratio (Staphylococcus aureus [25]): >4
4 | C=C[C@]1(C)C[C@@H](OC(=O)CSCCOc2cc(=O)oc3ccccc23)[C@]2(C)[C@H](C)CC[C@]3(CCC(=O)[C@H]32)[C@@H](C)[C@@H]1O | 0.031 (≈ 0.0532 µM) | 0.25 (≈ 0.429 µM) | 0.125 (≈ 0.214 µM) | >4 | 0.063 (≈ 0.108 µM) | 2 | 2 | >4 | 0.25 (≈ 0.429 µM) | 2 | 0.125 (≈ 0.214 µM) | 0.125 (≈ 0.214 µM) | 0.25 (≈ 0.429 µM) | >4 | 0.063 (≈ 0.108 µM) | 0.125 (≈ 0.214 µM) | 0.125 (≈ 0.214 µM) | 0.063 (≈ 0.108 µM) | 0.25 (≈ 0.429 µM) | >4 | Ratio (Staphylococcus aureus [22]): 1; Ratio (Staphylococcus aureus [14]): 2
5 | C=C[C@]1(C)C[C@@H](OC(=O)CO)[C@]2(C)[C@H](C)CC[C@]3(CCC(=O)[C@H]32)[C@@H](C)[C@@H]1O [PLEUROMULIN] | 1 (≈ 2.64 µM) | 0.5 (≈ 1.32 µM) | 0.25 (≈ 0.66 µM) | 2 | 0.25 (≈ 0.66 µM) |  | 2 | >4 | 4 (≈ 10.6 µM) | 2 | 0.5 (≈ 1.32 µM) | 2 (≈ 5.28 µM) | 1 (≈ 2.64 µM) | >4 | 0.5 (≈ 1.32 µM) | 0.5 (≈ 1.32 µM) | 0.25 (≈ 0.66 µM) | 0.5 (≈ 1.32 µM) | 2 (≈ 5.28 µM) | 2 | Ratio (Staphylococcus aureus [22]): >4; Ratio [23]: 4; Ratio (Streptococcus pneumoniae [26]): 4; Ratio (Staphylococcus aureus [14]): >4; Ratio (Staphylococcus aureus [25]): 4
6 | C=C[C@]1(C)C[C@@H](OC(=O)CSc2cc(=O)oc3ccccc23)[C@]2(C)[C@H](C)CC[C@]3(CCC(=O)[C@H]32)[C@@H](C)[C@@H]1O | 0.016 (≈ 0.0297 µM) | 0.125 (≈ 0.232 µM) | 0.125 (≈ 0.232 µM) | >4 | 0.25 (≈ 0.464 µM) | 2 | 4 | 1 | 0.125 (≈ 0.232 µM) | >4 | 0.125 (≈ 0.232 µM) | 0.031 (≈ 0.0575 µM) | 0.063 (≈ 0.117 µM) | >4 | 0.031 (≈ 0.0575 µM) | 0.125 (≈ 0.232 µM) | 0.031 (≈ 0.0575 µM) | 0.031 (≈ 0.0575 µM) | 0.125 (≈ 0.232 µM) | >4 | Ratio (Staphylococcus aureus [22]): 2; Ratio (Streptococcus pneumoniae [26]): 2; Ratio (Staphylococcus aureus [24]): 2
7 | C=C[C@]1(C)C[C@@H](OC(=O)CSc2cc(=O)oc3cc(Br)ccc23)[C@]2(C)[C@H](C)CC[C@]3(CCC(=O)[C@H]32)[C@@H](C)[C@@H]1O | 0.031 (≈ 0.0502 µM) | 0.063 (≈ 0.102 µM) | 0.125 (≈ 0.202 µM) | >4 | 0.125 (≈ 0.202 µM) |  | 1 | 2 | 0.125 (≈ 0.202 µM) | 2 | 0.063 (≈ 0.102 µM) | 0.063 (≈ 0.102 µM) | 0.063 (≈ 0.102 µM) | 4 | 0.031 (≈ 0.0502 µM) | 0.125 (≈ 0.202 µM) | 0.031 (≈ 0.0502 µM) | 0.031 (≈ 0.0502 µM) | 0.063 (≈ 0.102 µM) | >4 | Ratio (Staphylococcus aureus [22]): 1; Ratio [23]: >4; Ratio (Staphylococcus aureus [24]): 2; Ratio (Staphylococcus aureus [14]): 4
8 | C=C[C@]1(C)C[C@@H](OC(=O)CSCCOc2cc(=O)oc3cc(OC)ccc23)[C@]2(C)[C@H](C)CC[C@]3(CCC(=O)[C@H]32)[C@@H](C)[C@@H]1O | 0.031 (≈ 0.0506 µM) | 0.125 (≈ 0.204 µM) | 0.125 (≈ 0.204 µM) | >4 | 0.25 (≈ 0.408 µM) | >1 | 2 | >4 | 0.063 (≈ 0.103 µM) | >4 | 0.125 (≈ 0.204 µM) | 0.125 (≈ 0.204 µM) | 0.125 (≈ 0.204 µM) | >4 | 0.063 (≈ 0.103 µM) | 0.125 (≈ 0.204 µM) | 0.125 (≈ 0.204 µM) | 0.063 (≈ 0.103 µM) | 0.125 (≈ 0.204 µM) | >4 | Ratio (Streptococcus pneumoniae [26]): 2; Ratio (Staphylococcus aureus [24]): 4
